Experimental data reported in patent US8883798B2, “Pyrimidine compounds inhibiting the formation of nitric oxide and prostaglandin E2, method of production thereof and use thereof” (Ustav Organicke Chemie a Biochemie Akademie Ved CR, V.V.I., priority 2011, dated 2014).

Legend:
[1] = test system: production of nitric oxide (NO); test: Production of nitric oxide (NO) in cultures of mouse peritoneal cells stimulated with IFN-γ plus LPS (Griess reagent); type: cell-based, mice; conditions: Table 3A; substance 50 μmol·l^−1; IFN-g plus LPS; 24 h
Method in brief: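 C57BL/6 mouse peritoneal cells (2×10^6/mL) stimulated with IFN-γ (5000 pg/mL) plus LPS (100 pg/mL), compounds at 50 μmol·l^−1. Nitrite measured by Griess reagent after 24 h, expressed as % of stimulated control (set 100%); IC50 is concentration reducing NO by 50%.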

[2] = test system: production of prostaglandin E2 (PGE2); test: Production of prostaglandin E2 (PGE2) in cultures of mouse peritoneal cells stimulated with LPS (ELISA kit); type: cell-based, mice; conditions: Table 3A, substance 50 μmol·l^−1, 6 h
Method in brief: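 C57BL/6 mouse peritoneal cells (3×10^6/mL) stimulated with LPS (10 ng/mL). PGE2 measured by ELISA.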

peritoneal cells of mice = test: Cell viability of mouse peritoneal cells (WST-1 kit); type: cell-based; conditions: Table 3A, substance 50 μmol·l^−1, 24 h
Method in brief: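 C57BL/6 mouse peritoneal cells (1×10^6/mL) cultured 24 h with compounds at 50 μmol·l^−1. Viability read with WST-1 tetrazolium salt and expressed as percent of untreated control cells (100%).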

[3] = test system: human umbilical vein endothelial cells (HUVEC); test: Tube formation assay of HUVEC on Matrigel (in vitro angiogenesis); type: cell-based; conditions: 8 h
Source text: This so called “Tube Formation Assay” is a method based on the ability of endothelial cells to form capillary-like tubular structures when cultured on Matrigel™ (a gel of basement membrane extract—their natural substrate). The process of capillary-like tube formation includes endothelial cell attachment, migration, and differentiation into tubules. In this experiment, treatment with tested compounds started at the time of seeding HUVEC onto Matrigel and the extent of tubule development was observed after an 8 h time period. Disruption of tube formation was then assessed through observation of the tubular network and direct comparison to solvent-only controls. The quantitative and qualitative measurement of tubular network complexity was performed using web-based S.CORE imaging software and expressed by means of number of tubes, their total length, quality, number of branching points, etc. All these parameters were integrated into “tube formation index” which corresponds to the degree of complexity of tubular network. […] At a 10 μmol/L concentration, compound 23 reduced tube formation by >90%. […] Apoptosis in HUVECs (at ˜70% confluency) treated with or without varying concentrations (relevant for the tube formation assay) of tested substances was assessed by a combination of Annexin V and JC-1 staining. After 8 h of these treatments, cells were collected, and the cell population undergoing apoptosis was identified by double-parameter flow cytometry using annexin V and the vital dye propidium iodide (PI). Mitochondrial membrane potential in treated endothelial cells was measured using the lypophilic probe JC-1, which aggregates in healthy mitochondria and fluoresces red, but diffuses in the cytoplasm and fluoresces green upon mitochondrial damage. In both cases, quantification of apoptotic cells were conducted in BD FACSDiva software.

HUVEC = HUVEC cell proliferation (XTT assay); type: cell-based, human; conditions: 10 to 50 μmol/L, 8 hours
[4] = test system: Salmonella typhimurium TA 98 and TA 100, Escherichia coli WP2 uvrA
Protocol: With compound 28, its possible mutagenicity (genotoxicity) was assessed using the standard bacterial reverse mutation test. According to Council Regulation (ES) No. 440/2008, stipulating the test methods according to the European Parliament and Council regulation (ES), the method used was B.13/14, Mutagenicity—Reverse Mutation Test Using Bacteria, which is described in the same way also in the OECD Test Guideline No. 471.
[…] The experiments were conducted without using metabolic activation and after activation with supernatant S9 from […] livers and with mixtures of cofactors (NADP and glucoso-6-phosphate) to determine the mutagenicity of the metabolic products of the compound tested. Supernatant S9 was prepared according to the literature [Mutat. Res. 113, 173-215, 1983].
The principle of the test is to detect possible revertants created by reverse mutation, which would be induced in the bacterial culture by the tested compound. Specially constructed bacterial strains are used, carrying mutations in the place for his (trp), which are not capable of forming colonies on the minimum plates without histidine or tryptophan. […] Mutagenic potential is given by the growing number of revertants in the influenced groups in comparison with a negative control, and/or in dependence on the growing number of revertants on the dose of the tested compound.
Bacterial testers, types Salmonella typhimurium TA 98 (CCM 3811) and Escherichia coli WP2 uvrA (CCM 4751), were acquired from the Czech Collection of Microorganisms of Masaryk University, Brno and the strain Salmonella typhimurium TA100 (CIP 103796, lot No. 1008) from the Biological Resource Center, Institut Pasteur in Paris (CRBIP).

| melting point [°C] | SMILES | Production of nitric oxide in % of the controls [1] | Production of prostaglandins in % of the controls [2] | Cell viability in % of the controls (peritoneal cells of mice) | Effect on tube formation ([3]; 10 μmol/L) | Capillary tube formation [3] | HUVEC cell proliferation (HUVEC) | further results |
| --- | --- | --- | --- | --- | --- | --- | --- | --- |
|  | CN(C)C=Nc1nc(Cl)c(Cc2ccccc2)c(Cl)n1 [Substance 23] | 4.41 ± 0.59 % of the controls | 3.05 ± 1.26 % of the controls | 96.24 ± 11.9 % of the controls | tube disruption | inhibited capillary tube formation in a dose dependent manner | did not influence HUVEC cell proliferation | Reduction of tube formation ([3]; 10 μmol/L): > 90%; Concentration from which antiangiogenic activity was apparent [3]: ≥ 5 µmol/L |
|  | CCCCc1c(Cl)nc(N=CN(C)C)nc1Cl [Substance 19] | 2.99 ± 0.53 % of the controls | 14.93 ± 3.11 % of the controls | 123.21 ± 21.43 % of the controls | no inhibitory activity was detectable | inhibited capillary tube formation in a dose dependent manner | did not influence HUVEC cell proliferation | Effect on tube formation ([3]; 25 μmol/L): Partial differentiation |
|  | CC(C)c1c(Cl)nc(NC=O)nc1Cl [Substance 53] | 0.70 ± 0.22 % of the controls | 8.57 ± 0.99 % of the controls | 60.02 ± 0.29 % of the controls | only limited effect | inhibited capillary tube formation in a dose dependent manner | did not influence HUVEC cell proliferation | Incomplete tube formation ([3]; 25 μmol/L): ~46% |
|  | Nc1nc(Cl)c(Cc2ccccc2)c(Cl)n1 [Substance 34] | 50.57 ± 9.31 % of the controls | 3.71 ± 2.00 % of the controls | 105.92 ± 20.65 % of the controls |  |  |  | Mutagenicity (reverse mutation) ([4]; all strains, all tested concentrations, with and without metabolic activation): non-mutagenous |
| 42 to 45 | CCCCc1c(Cl)nc(N(C)C)nc1Cl [Substance 63, 5-butyl-4,6-dichloro-2-(dimethylamino)pyrimidine] |  |  |  |  |  |  |  |
| 183 to 185 | CCCCc1c(Cl)nc(N)nc1-c1ccccc1 [Substance 41, 2-amino-5-butyl-4-chloro-6-phenylpyrimidine] |  |  |  |  |  |  |  |
| 182 to 183 | CCCc1c(Cl)nc(N)nc1Cl [Substance 27, 2-amino-4,6-dichloro-5-propylpyrimidine] |  |  |  |  |  |  |  |
| 77 to 78 | CC(C)c1c(Cl)nc(/N=C/N(C)C)nc1Cl [Substance 16, 4,6-dichloro-5-isopropyl-2-{[(dimethylamino)methylene]amino}pyrimidine] |  |  |  |  |  |  |  |
|  | [N-]=[N+]=[N-] [sodium azide, reference compound] |  |  |  |  |  |  | Number of revertants, positive control for −MA I ([4]; arrangement of FIG. 5 (TA 100), without metabolic activation, 1.5 μg): > 500 |
| 76 to 78 | CCCc1c(Cl)nc(/N=C/N(C)C)nc1Cl [Substance 15, 4,6-dichloro-2-{[(dimethylamino)methylene]amino}-5-propylpyrimidine] |  |  |  |  |  |  |  |
